Laboratory results from patent publication US11076595B2, “1-(n,n-disubstituted carbamoyl) 4-(substituted sulfonyl)triazolin-5-one derivative, 4-(n,n-disubstituted carbamoyl) 1-(substituted sulfonyl)triazolin-5-one derivative, and herbicide containing said derivative as active ingredient” (HOKKO CHEMICAL INDUSTRY CO., LTD., priority 2017, dated 2021).

Tests used:
Format in all cases: in vivo
Lindernia pyxidaria [1] = test: Test Example 12: herbicidal effect test by treatment during growing period in paddy field; conditions: 120 g/10a; treatment seven days after sowing in flooded paddy pot; assessed 14 days after treatment
Description: (§1) This test was performed with two replications per one formulation concentration plot, and 14 days after the formulation treatments, the weed suppression rate (%) was determined according to the following equation (Math. 2). Weed suppression rate (%)=(1−average dry weight (g) of plants in treated plots/average dry weight (g) of plants in untreated plots)×100 [Math. 2]
(§2) A Wagner pot having an area of 1/10000 are was filled with paddy field soil and after adding water, a chemical fertilizer (N:P:K=17:17:17) was mixed, followed by puddling. Thereafter, 30 grains of each of Echinochloa crus-galli, broad-leaved weed (Lindernia pyxidaria, Monochoria vaginalis) and Scirpus juncoides seeds were sown to a depth of 0 to 1 cm. Immediately after the sowing, the pot was flooded, and the depth of water was kept at about 3 cm. The pot was subsequently managed in a glass greenhouse. Seven Days after sowing, an emulsifiable concentrate prepared according to Formulation Example 15 by using the compound shown in Table 10 below was diluted with water, and a predetermined amount of the water-diluted formulation was added dropwise. The application rate of the active ingredient, by conversion, corresponded to 120 g per 10 are. The test was performed with two replications per one formulation concentration plot, and 14 days after the formulation treatments, the weed suppression rate (%) was determined according to the equation (Math. 2).

Scirpus juncoides [2] = test: as above; conditions: 120 g/10a; treatment seven days after sowing in flooded paddy pot; assessed 14 days after treatment
Description: as §1, §2

Monochoria vaginalis [3] = test: as above; conditions: 120 g/10a; treatment seven days after sowing in flooded paddy pot; assessed 14 days after treatment
Description: as §1, §2

Echinochloa crus-galli [4] = test: as above; conditions: 120 g/10a; treatment seven days after sowing in flooded paddy pot; assessed 14 days after treatment
Description: as §1, §2

Lindernia pyxidaria [5] = test: Test Example 11: herbicidal effect test by soil treatment in paddy field; conditions: 120 g/10a active ingredient, 14 days after treatment
Description: as §2, with “greenhouse. Just” for “greenhouse. Seven Days”, “after that,” for “after sowing,”, “Table 9” for “Table 10”, “are.” for “are. The test was performed with two replications per one formulation concentration plot, and 14 days after the formulation treatments, the weed suppression rate (%) was determined according to the equation (Math. 2).”
as §1

Scirpus juncoides [6] = test: as above; conditions: 120 g/10a active ingredient, 14 days after treatment
Description: as §2, with “greenhouse. Just” for “greenhouse. Seven Days”, “after that,” for “after sowing,”, “Table 9” for “Table 10”, “are.” for “are. The test was performed with two replications per one formulation concentration plot, and 14 days after the formulation treatments, the weed suppression rate (%) was determined according to the equation (Math. 2).”
as §1

Monochoria vaginalis [7] = test: as above; conditions: 120 g/10a active ingredient, 14 days after treatment
Description: as §2, with “greenhouse. Just” for “greenhouse. Seven Days”, “after that,” for “after sowing,”, “Table 9” for “Table 10”, “are.” for “are. The test was performed with two replications per one formulation concentration plot, and 14 days after the formulation treatments, the weed suppression rate (%) was determined according to the equation (Math. 2).”
as §1

Echinochloa crus-galli [8] = test: as above; conditions: 120 g/10a active ingredient, 14 days after treatment
Description: as §2, with “greenhouse. Just” for “greenhouse. Seven Days”, “after that,” for “after sowing,”, “Table 9” for “Table 10”, “are.” for “are. The test was performed with two replications per one formulation concentration plot, and 14 days after the formulation treatments, the weed suppression rate (%) was determined according to the equation (Math. 2).”
as §1

Row | Compound | Weed suppression rate (%) Lindemia pyxidaria (Lindernia pyxidaria [1]) [%] | Weed suppression rate (%) Scirpus juncoides (Scirpus juncoides [2]) [%] | Weed suppression rate (%) Monochoria vaginalis (Monochoria vaginalis [3]) [%] | Weed suppression rate (%) Echinochloa crus-galli (Echinochloa crus-galli [4]) [%] | Weed suppression rate (%) Lindemia pyxidaria (Lindernia pyxidaria [5]) [%] | Weed suppression rate (%) Scirpus juncoides (Scirpus juncoides [6]) [%] | Weed suppression rate (%) Monochoria vaginalis (Monochoria vaginalis [7]) [%] | Weed suppression rate (%) Echinochloa crus-galli (Echinochloa crus-galli [8]) [%]
1 | CC(C)N(C(=O)n1cnn(S(=O)(=O)c2cccs2)c1=O)c1ccc(C#N)cc1Cl [Compound 11-1044] | 80 | 90 | 80 | 90 | 90 | 90 | 90 | 90
2 | Cc1ccc(S(=O)(=O)n2ncn(C(=O)N(c3cccc(F)c3)C(C)C)c2=O)cc1 [Compound 11-628] | 80 | 90 | 80 | 90 | 80 | 90 | 80 | 90
3 | CN(C(=O)n1cnn(S(=O)(=O)c2ccc(Cl)cc2)c1=O)c1ccc(F)cc1F [Compound 11-1134] | 70 | 100 | 70 | 80 |  |  |  | 
4 | Cc1ccc(S(=O)(=O)n2ncn(C(=O)N(c3ccc(Br)cc3Cl)C(C)C)c2=O)cc1 [Compound 11-648] | 60 | 90 | 70 | 60 |  |  |  | 
5 | Cc1cc(C)c(S(=O)(=O)n2ncn(C(=O)N(c3ccc(Cl)cc3C)C(C)C)c2=O)c(C)c1 [Compound 11-878] |  |  |  |  | 80 | 90 | 80 | 90
6 | CC(C)N(C(=O)n1cnn(S(=O)(=O)c2c(F)c(F)c(F)c(F)c2F)c1=O)c1ccc(F)c(F)c1F [Compound 11-814] |  |  |  |  | 90 | 30 | 70 | 70
7 | Cc1cc(F)ccc1N(C(=O)n1cnn(S(=O)(=O)c2ccccc2F)c1=O)C(C)C [Compound 11-415] |  |  |  |  | 70 | 30 | 70 | 80
8 | Cc1cc(F)ccc1N(C(=O)n1cnn(S(=O)(=O)c2ccccc2Cl)c1=O)C(C)C [Compound 11-525] |  |  |  |  | 90 | 60 | 90 | 60
9 | Cc1cc(Cl)ccc1N(C(=O)n1cnn(S(=O)(=O)c2ccccc2Cl)c1=O)C(C)C [Compound 11-527] |  |  |  |  | 80 | 90 | 80 | 90
10 | CC(C)N(C(=O)n1cnn(S(=O)(=O)c2ccc(Cl)cc2)c1=O)c1ccccc1 [Compound 11-577] |  |  |  |  | 60 | 0 | 0 | 40
11 | CC(C)N(C(=O)n1cnn(S(=O)(=O)c2ccc(C(F)(F)F)cc2)c1=O)c1ccc(F)cc1F [Compound 11-749] |  |  |  |  | 70 | 70 | 70 | 60
12 | CC(C)N(C(=O)n1cnn(S(=O)(=O)c2cccc(Cl)c2)c1=O)c1ccccc1 [Compound 11-539] |  |  |  |  | 90 | 40 | 40 | 80
13 | CC(C)N(C(=O)n1cnn(S(=O)(=O)N(C)C)c1=O)c1c(F)c(F)cc(F)c1F [Compound 11-1069] | 70 | 60 | 70 | 90 |  |  |  | 
14 | CC(C)N(C(=O)n1cnn(S(=O)(=O)c2ccc(Cl)cc2)c1=O)c1ccccc1F [Compound 11-578] |  |  |  |  | 80 | 90 | 80 | 90
15 | CC(C)N(C(=O)n1cnn(S(=O)(=O)c2ccc(Cl)cc2)c1=O)c1c(F)c(F)cc(F)c1F [Compound 11-593] |  |  |  |  | 70 | 30 | 60 | 80
16 | Cc1ccc(N(C(=O)n2cnn(S(=O)(=O)c3c(F)cccc3F)c2=O)C(C)C)c(F)c1 [Compound 11-787] |  |  |  |  | 80 | 90 | 80 | 90
17 | CC(C)N(C(=O)n1cnn(S(=O)(=O)CCl)c1=O)c1ccc(C(F)(F)F)cc1F [Compound 11-126] |  |  |  |  | 100 | 30 | 60 | 100
18 | CC(C)N(C(=O)n1cnn(S(=O)(=O)c2cccc(Cl)c2)c1=O)c1ccc(Cl)cn1 [Compound 11-574] |  |  |  |  | 80 | 50 | 40 | 90
19 | CC(C)N(C(=O)n1cnn(S(=O)(=O)c2cccc(C(F)(F)F)c2)c1=O)c1ccc(F)c(F)c1F [Compound 11-726] |  |  |  |  | 90 | 30 | 30 | 100
20 | Cc1ccc(S(=O)(=O)n2ncn(C(=O)N(c3ccc(Cl)cc3C)C(C)C)c2=O)cc1 [Compound 11-652] |  |  |  |  | 80 | 90 | 80 | 90
21 | CN(C(=O)n1cnn(S(=O)(=O)c2ccc(C(C)(C)C)cc2)c1=O)c1ccc(F)cc1F [Compound 11-1141] | 70 | 60 | 80 | 90 |  |  |  | 
22 | CC(C)N(C(=O)n1cnn(S(=O)(=O)c2ccc(C(C)(C)C)cc2)c1=O)c1ccc(C(F)(F)F)cc1F [Compound 11-699] |  |  |  |  | 90 | 30 | 70 | 90
23 | CC(C)N(C(=O)n1cnn(S(=O)(=O)c2c(F)cccc2F)c1=O)c1ccc(F)cc1Cl [Compound 11-780] |  |  |  |  | 100 | 100 | 60 | 60
